In US8735375B2, “Therapeutic compositions” (Leo Laboratories Limited, priority 2005, dated 2014):

Assay: Stability of I3A isoforms in the assay solvent systems over 72 h
Assay type: physicochemical
Method: The stability of […] isoforms 'a', 'b' and 'c' in the three sample systems over 72 h (equivalent to the maximum possible length of time the samples might be held in the autosampler during a long HPLC analytical run) was confirmed as follows. Standards of the three isoforms of […] The standards were then each divided into three equal volumes and placed at 2-8° C., room temperature and 40° C. for 72 h and were then again analysed by HPLC.

[1] = Acetonitrile/Citrate buffer (pH 3), 72 h 2-8° C.
[2] = Acetonitrile/Citrate buffer (pH 3), 72 h 40° C.
[3] = Acetonitrile/Citrate buffer (pH 3), 72 h RTP
[4] = Acetonitrile/Citrate buffer (pH 3), Time 0 h
[5] = Acetonitrile/Sodium acetate buffer (pH 4.5), 72 h 2-8° C.
[6] = Acetonitrile/Sodium acetate buffer (pH 4.5), 72 h 40° C.
[7] = Acetonitrile/Sodium acetate buffer (pH 4.5), 72 h RTP
[8] = Acetonitrile/Sodium acetate buffer (pH 4.5), Time 0 h

SMILES | % ‘a’ (Acetonitrile, 72 h 2-8° C.) [%] | % ‘b’ (Acetonitrile, 72 h 2-8° C.) [%] | % ‘c’ (Acetonitrile, 72 h 2-8° C.) [%] | % ‘a’ (Acetonitrile, 72 h 40° C.) [%] | % ‘b’ (Acetonitrile, 72 h 40° C.) [%] | % ‘c’ (Acetonitrile, 72 h 40° C.) [%] | % ‘a’ (Acetonitrile, 72 h RTP) [%] | % ‘b’ (Acetonitrile, 72 h RTP) [%] | % ‘c’ (Acetonitrile, 72 h RTP) [%] | % ‘a’ (Acetonitrile, Time 0 h) [%] | % ‘b’ (Acetonitrile, Time 0 h) [%] | % ‘c’ (Acetonitrile, Time 0 h) [%] | % ‘a’ [1] [%] | % ‘b’ [1] [%] | % ‘c’ [1] [%] | % ‘a’ [2] [%] | % ‘b’ [2] [%] | % ‘c’ [2] [%] | % ‘a’ [3] [%] | % ‘b’ [3] [%] | further results
CC=C(C)C(=O)OC1C(CO)=CC2C(=O)C3(C=C(C)C(O)C13O)C(C)CC1C2C1(C)C (stereo not drawn) [Isoform ‘a’, ingenol-5-angelate] | 90.63 | 5.71 | 2.55 | 16.36 | 47.01 | 35.74 | 86.58 | 7.8 | 3.65 | 96.82 | 2.24 | 0.29 | 98.31 | 1.46 | 0 | 98.13 | 1.79 | 0 | 98.84 | 1.08 | % ‘c’ [3]: 0%; % ‘a’ [4]: 97.91%; % ‘b’ [4]: 1.63%; % ‘c’ [4]: 0%; % ‘a’ [5]: 96.47%; % ‘b’ [5]: 2.83%; % ‘c’ [5]: 0%; % ‘a’ [6]: 82.51%; % ‘b’ [6]: 16.62%; % ‘c’ [6]: 0%; % ‘a’ [7]: 95.25%; % ‘b’ [7]: 4.22%; % ‘c’ [7]: 0%; % ‘a’ [8]: 96.65%; % ‘b’ [8]: 2.16%; % ‘c’ [8]: 0.23%
CC=C(C)C(=O)OCC1=CC2C(=O)C3(C=C(C)C(O)C3(O)C1O)C(C)CC1C2C1(C)C (stereo not drawn) [Isoform ‘c’, ingenol-20-angelate] | 1.62 | 0 | 96.69 | 0.6 | 0 | 97.09 | 1.55 | 0.27 | 97.19 | 1.28 | 0.41 | 97.30 | 0.87 | 0.16 | 98.84 | 0 | 0 | 98.7 | 0.53 | 0 | % ‘c’ [3]: 99.24%; % ‘a’ [4]: 1.12%; % ‘b’ [4]: 0.20%; % ‘c’ [4]: 98.41%; % ‘a’ [5]: 1.41%; % ‘b’ [5]: 0.27%; % ‘c’ [5]: 97.17%; % ‘a’ [6]: 0%; % ‘b’ [6]: 0%; % ‘c’ [6]: 97.75%; % ‘a’ [7]: 0.83%; % ‘b’ [7]: 0%; % ‘c’ [7]: 97.97%; % ‘a’ [8]: 1.34%; % ‘b’ [8]: 0.45%; % ‘c’ [8]: 97.02%
